In brackets after ≈: the same amount, converted by molar mass. Several values for one entry are separate records, joined by “and”; a condition that tells them apart may be missing. Equal entries are not always repeated. Where two headings read alike, the source gives them in different places. Square brackets hold non-standard residues; d marks the D form. Ends that are not written are not given here. Peptide text beside a SMILES is read from it. * marks the point of attachment. Palmitoyl = CCCCCCCCCCCCCCCC(=O)*
Tests used:
[1] = system: P. aeruginosa ATCC 10145; details: CFU assay, 10 mM NaP
[2] = system: Klebsiella pneumonia ATCC 700603; details: MDR strain; CLSI, Mueller–Hinton broth, 5 × 10^5 CFU/mL, 18 h 37 °C, by CO-ADD
[3] = system: E. coli ATCC 25922; assay: CO-ADD MIC, broth microdilution (CLSI); type: cell-based, Escherichia coli; details: Mueller–Hinton broth, 5 × 10^5 CFU/mL, 18 h 37 °C, by CO-ADD
From the text: (§1) They were defined as the lowest peptide
(§2) Further details of the screening

[4] = system: Pseudomonas aeruginosa ATCC 27853; assay: CO-ADD MIC, broth microdilution (CLSI); type: cell-based; details: Mueller–Hinton broth, 5 × 10^5 CFU/mL, 18 h 37 °C, by CO-ADD
From the text: as §1, §2

[5] = system: Acinetobacter baumannii ATCC 19606; assay: CO-ADD MIC, broth microdilution (CLSI); type: cell-based; details: Mueller–Hinton broth, 5 × 10^5 CFU/mL, 18 h 37 °C, by CO-ADD
From the text: as §1, §2

[6] = system: S. aureus ATCC 6538
[7] = system: Staphylococcus aureus ATCC 43300; details: MRSA; CLSI, Mueller–Hinton broth, 5 × 10^5 CFU/mL, 18 h 37 °C, by CO-ADD
[8] = system: Cryptococcus neoformans ATCC 208821; assay: CO-ADD MIC, antifungal assay (CLSI); type: cell-based; details: Yeast Nitrogen Base broth, 24 h 35 °C, by CO-ADD
Experimental: (§3) Fungi strains were cultured for 3 days on Yeast Extract-Peptone Dextrose (YPD) agar at 30 °C. A yeast suspension of 1 × 10^6 to 5 × 10^6 cells/mL (as determined by OD530) was prepared from five colonies. These stock suspensions were diluted with Yeast Nitrogen Base (YNB) broth to a final concentration of 2.5 × 10^3 CFU/mL. […] Plates were covered and incubated at 35 °C for 24 h without shaking.

[9] = system: Candida albicans ATCC 90028; assay: CO-ADD MIC, antifungal assay (CLSI); type: cell-based; details: Yeast Nitrogen Base broth, 24 h 35 °C, by CO-ADD
Experimental: as §3

[10] = system: Burkholderia cepacia ATCC 25416; details: CFU assay, 10 mM NaP, pH 5.5, 0.25% glucose
[11] = system: E. coli ATCC 11775; assay: CFU assay of antimicrobial activity; type: cell-based, Escherichia coli; details: 10 mM NaP, pH 5.5, 1% TSB
Experimental: (§4) All purified peptides and recombinant proteins were applied using a colony forming unit (CFU) assay in different media. Bacteria were grown to early log-phase in BHI, washed either with 10 mM Na-P, pH 7.4/1% TSB or pH 5.5/1% TSB, or pH 5.5 without TSB or BHI, and adjusted to a concentration of 10^4–10^5 colony forming units (CFU)/ml. For cell number control, 100 µl aliquots were diluted 1:10, 1:100 and 1:1000 and plated in duplicates on BHI agar plates. To 100 µl aliquots of the bacteria, suspended in the respective medium (10 mM Na-P buffer pH 7,0–7,4/ 1% (w/v) TSB; 10 mM Na-P buffer pH 5,5/ 1% (w/v) TSB; 10 mM Na-P buffer pH 7,0–7,4/ 1% (w/v) TSB pH 7,0–7,4/ 0,25% (w/v) glucose; 10 mM Na-P buffer pH 5,5/ 0,25% (w/v) glucose, respectively), 10 µl of a solution of the peptide or protein (two-fold dilutions, from 300 µg/ml or 150 µg/ml down to 19 ng/ml), dissolved in 0.01% (v/v) acetic acid, were added.
(§5) Then bacteria were incubated for 2 h at ambient temperature, if not otherwise stated. 10 µl of 0.01% (v/v) acetic acid, added to 100 µl aliquots of the bacteria in the respective medium, served as negative control. From each test, 1:10 and 1:100 dilutions were generated and plated as duplicates of 100 µl aliquots on BHI agar plates. After 16 h incubation at 37 °C, CFU were counted using a colony counter (Bio Kobe, Japan) and expressed as mean of the duplicate estimation to achieve a complete dose-response curve. All experiments were performed at serial dilutions in a concentration range of 100 µg/mL −25 ng/mL for recombinant HRNR fragments and 300 or 150 µg/mL–19 ng/mL for synthetic peptides.

[12] = system: C. albicans ATCC 24433; assay: CFU assay of antimicrobial activity; type: cell-based, Candida albicans; details: 10 mM NaP
Experimental: Bacteria were cultivated in either brain heart infusion medium (BHI), lysogeny broth (LB) or tryptic soy broth (TSB)[88]. If not otherwise stated, bacteria were incubated under shaking conditions (37 °C at 170 rpm) or as indicated on the ATCC- or DSM-data sheets. Candida albicans was cultured for 3 days on Yeast Extract-Peptone Dextrose (YPD) agar at 30 °C and yeast suspensions at appropriate density were treated with CIDAMPs as indicated.
as §4, §5

[13] = system: Corynebacterium simulans DSM 44415; assay: CFU assay of antimicrobial activity; type: cell-based; details: 10 mM NaP, pH 6.0, 0.25% glucose
Experimental: All purified peptides and recombinant proteins were applied using a colony forming unit (CFU) assay in different media. Bacteria were grown to early log-phase in BHI, washed either with 10 mM Na-P, pH 7.4/1% TSB or pH 5.5/1% TSB, or pH 5.5 without TSB or BHI, and adjusted to a concentration of 10^4–10^5 colony forming units (CFU)/ml. For cell number control, 100 µl aliquots were diluted 1:10, 1:100 and 1:1000 and plated in duplicates on BHI agar plates. […]
as §5

[14] = CFU assay, 10 mM NaP, pH 5.5, 0.25% glucose
[15] = CFU assay, 10 mM NaP, pH 5.5, 1% TSB
[16] = CFU assay, 10 mM NaP, pH 7.0, 0.25% glucose

Row | Molecule | LD90 ([1]; pH 5.5, 0.25% glucose) | LD100 ([1]; pH 5.5, 0.25% glucose) | LD90 ([1]; pH 5.5, 1% TSB) [µg/mL] | LD100 ([1]; pH 5.5, 1% TSB) [µg/mL] | LD90 [11] [µg/mL] | LD100 [11] [µg/mL] | LD90 ([12]; pH 5.5, 1% TSB) [µg/mL] | LD100 ([12]; pH 5.5, 1% TSB) [µg/mL] | LD90 [13] [µg/mL] | LD100 [13] [µg/mL] | also measured
1 | CCCCCCCCCCCCCCCC(=O)NCC(=O)N[C@H](CCCNC(=N)N)C(=O)N[C@H](CCCNC(=N)N)C(=O)NCC(=O)NCC(=O)N[C@H](CCCNC(=N)N)C(=O)NCC(=O)NCC(=O)N[C@H](CCCNC(=N)N)C(=O)NCC(=O)N[C@H](CCCNC(=N)N)C(=O)NCC(=O)N[C@H](CCCNC(=N)N)C(=O)O [(D)-Pal-GR13] (Palmitoyl-G[dR][dR]GG[dR]GG[dR]G[dR]G[dR]-OH; C-terminus assumed) | 0.075 µg/mL | 0.3 µg/mL | – | – | – | – | – | – | – | – | Minimal inhibitory concentration (MIC) [2]: ≥32 µg/mL; Minimal inhibitory concentration (MIC) [3]: 8 µg/mL (≈ 5.02 µM); Minimal inhibitory concentration (MIC) [4]: 16 µg/mL (≈ 10 µM); Minimal inhibitory concentration (MIC) [5]: 8 µg/mL (≈ 5.02 µM); LD90 [6, 14]: 0.075 µg/mL; LD99 (concentration of peptide which kills 99.0% of inoculum) [6, 14]: 0.59 µg/mL; LD100 [6, 14]: 75 µg/mL; Minimal inhibitory concentration (MIC) [7]: 2 µg/mL (≈ 1.26 µM); Minimal inhibitory concentration (MIC) [8]: 2 µg/mL (≈ 1.26 µM); Minimal inhibitory concentration (MIC) [9]: 8 µg/mL (≈ 5.02 µM)
2 | GRHGSGLGHSSSHGQHGSGSGRSSSRGPY [HR 1-17] | 0.038 µg/mL and 0.075 µg/mL | 0.15 µg/mL and 0.3 µg/mL | 0.59 | 18.75 | >300 | >300 | 18.8 | 150 | – | – | LD90 [10]: >300 µg/mL; LD100 [10]: >300 µg/mL; LD90 [6, 15]: >300 µg/mL; LD100 [6, 15]: >300 µg/mL; LD90 ([12]; pH 5.5, 0.25% glucose): 18.8 µg/mL; LD100 ([12]; pH 5.5, 0.25% glucose): 9.38 µg/mL
3 | GRRGSGLGRSSSRGGRGSGSGR [HR 1-18,4H-4R, HR1-18 variant] | – | 0.15 µg/mL | – | – | – | – | – | – | – | – | Minimal inhibitory concentration (MIC) [2]: >32 µg/mL; Minimal inhibitory concentration (MIC) [3]: >32 µg/mL; Minimal inhibitory concentration (MIC) [4]: >32 µg/mL; Minimal inhibitory concentration (MIC) [5]: >32 µg/mL; LD90 [6, 14]: 150 µg/mL; LD100 [6, 14]: > 300 µg/mL; LD100 [6, 16]: > 300 µg/mL; max.killing [6, 16]: 98.8%; Minimal inhibitory concentration (MIC) [7]: >32 µg/mL; Minimal inhibitory concentration (MIC) [8]: >32 µg/mL; Minimal inhibitory concentration (MIC) [9]: >32 µg/mL
4 | HTQNSSSGQAASSHEQAR [FLG684-701] | > 300 µg/mL | > 300 µg/mL | – | – | – | – | – | – | > 150 | > 150 | –
5 | QGSHHEQSVNRSGHSGSHHSHTTSQGR [FLG528-554] | 0.15 µg/mL | 0.59 µg/mL | – | – | – | – | – | – | > 150 | > 150 | activity against S. aureus ATCC 6538 ([6]; at concentrations <60 µM (data not shown)): lack activity
6 | QSGTHHAENSSGGQAASSHEQAR [FLG2301-2323] | > 300 µg/mL | 300 µg/mL | – | – | – | – | – | – | > 150 | > 150 | –
7 | QSGTRHAETSSGGQAASSHEQAR [FLG3273-3295] | > 300 µg/mL | 300 µg/mL | – | – | – | – | – | – | > 150 | > 150 | –
8 | QSGTRHETSSGGQAASSQEQAR [FLG1652-1674] | > 300 µg/mL | > 300 µg/mL | – | – | – | – | – | – | > 150 | > 150 | –
9 | QSGTRHTQTSSGGQAASSHEQAR [FLG2625-2647] | > 300 µg/mL | > 300 µg/mL | – | – | – | – | – | – | > 150 | > 150 | –
10 | rHRNR2638–2684: recombinant HRNR fragment (QSSGHGRQGSGSGQSPSRGRHGSGLGHSSSHGQHGSGSGRSSSRGPY; UniProt Q86YZ3 2638-2684, looked up, fragment) | – | – | 0.39 | 12.5 | 3.1 | >100 | 6.3 | >100 | – | – | –
11 | rHRNR2656–2684: recombinant HRNR fragment (GRHGSGLGHSSSHGQHGSGSGRSSSRGPY; UniProt Q86YZ3 2656-2684, looked up, fragment) | – | – | 0.78 | 12.5 | 3.1 | >100 | 6.3 | >100 | – | – | –
12 | rHRNR2727–2850: recombinant HRNR fragment (protein, UniProt Q86YZ3 2727-2850, looked up, fragment) SGQSSTFDQEGSSTGQSSSYGHRGSGSSQSSGYGRHGAGSGQSLSHGRHGSGSGQSSSYGQHGSGSGQSSGYSQHGSGSGQDGYSYCKGGSNHDGGSSGSYFLSFPSSTSPYEYVQEQRCYFYQ | – | – | 2.1 | 17.1 | 0.28 | >100 | 8.6 | 137 | – | – | –
13 | rHRNR1075–1172: recombinant HRNR fragment (protein, UniProt Q86YZ3 1075-1172, looked up, fragment) THGQHGSTSGQSSSCGQHGASSGQSSSHGQHGSGSSQSSGYGRQGSGSGQSPGHGQRGSGSRQSPSYGRHGSGSGRSSSSGQHGSGLGESSGFGHHES | – | – | 6.25 | >100 | 6.25 | >100 | 1.6 | 12.5 | – | – | –

— article PMC6399351, “Cationic Intrinsically Disordered Antimicrobial Peptides (CIDAMPs) Represent a New Paradigm of Innate Defense with a Potential for Novel Anti-Infectives” (Scientific Reports, 2019)
